Results on 1 molecule are retold here after patent US20250381274A1 (priority 2022, published 2025).

The structures appear in SMILES notation. “Also recorded” adds a separate entry of the source.

Assay [1] deals with cornea. Nature of the assay: Corneal topography (EyeSys), effective refractive power of ex vivo eyes crosslinked under coverslip loading. Also noted: species or system rabbit. The following applies: for immediate diopter drop (words) / sustained diopter drop (words): 20% ribose 1 hr + UVA 365 nm lamp up to 3 hrs; for immediate diopter drop (words): coverslip (Hypothesis 2B / Group3); for sustained diopter drop (words): coverslip, final time point 8-10 hours; for immediate diopter drop (decrease in effective refractive power): immediately after irradiation. From the text:
• 5 additional rabbits (Paired treated and control for OS/OD) • Sample preparation for ex vivo EyeSys topography: • connected to IV system (˜15 mm H2O) • Epithelium removed • CxL during mechanical deformation introduced by the coverslip • Point1: 1 hr after IV stabilization • Point2: after applying 20% (1.7M) Ribose, then 20% Dextran • Point3: after flattening/treatment (˜2 hrs) • (flattened 8-10 mm) • Point4: ˜1 hr after point3 • Point5: last point (might need trypan blue on top) • Laser Treatments: • Fidelity II, 1069 nm, 39fs, 450 mW • Focusing: no (deliberate) spark around touching the tissue • ZEISS 40X, NA=0.1463 • Z: increments 20 μm, 5 layers (several intervals) • 1 stlayer 15 μm below surface of focus sparking • XY: 10 μm zigzag grid, 3 mm radius circle • Motor speed 2.6 mm/s, full circle treatments: ˜25*5 mins • Representative OCT and visual changes are shown in appended FIGS. 1-25.
• 3 additional rabbits (Paired treated and control for OS/OD) • connected to IV system, stabilize for ˜1 hr • Trypan Blue inside the anterior chamber beneath cornea • CxL during mechanical deformation introduced by the coverslip • (˜40%-60% flattened by coverslip from the total diameter) • Treatment Protocol-1 hr submerged in 20% w/v Ribose in 20% Dextran • up to 3 hrs of UVA lamp (visible flattening as an indicator for duration)
Corneal Topography: For Group3 eyes, using an EyeSys Vista handheld topographer, the effective refractive power (Eff.Rp) was collected at multiple time points in a 10-hour period after eye harvest. The immediate diopter drop was defined as the difference between the initial baseline Eff.Rp and the Eff.Rp immediately after CXL. The sustained diopter drop was defined as the difference between the initial baseline Eff.Rp and the final Eff.Rp. Statistical Analysis: One-tailed paired t-tests were used for statistical analysis of Eff.Rp (Group3); two-tailed paired t-tests were used for biomechanical comparison (Group1 and 2). A p-value smaller than 0.05 was considered statistically significant.
Corneal Topography and OCT: The EyeSys topography effective refractive power (Eff.Rp) and OCT images were collected at multiple time points in a 10-hour period after eye harvest. Diopter drop after CxL was calculated and compared relative to the baseline Eff.Rp.
(§1) In Group2 (n=15 rabbits), to assess corneal flattening, 24 intact eyeballs (12 rabbits) were enucleated and placed into a custom-build holder such that one eye was subject to ROS-Glycation-CXL, and the other served as a paired control. After 1 hr incubation in 20% ribose PBS, all apical eyeballs were pressed with a coverslip until the contact between the cornea and the coverslip reached approximately 3 mm in diameter until the treatment finished. Group 2A's (n=6 pairs) treated eyes were exposed to 1.5 hours of UVA lamp irradiation, whereas Group 2 B's (n=6 pairs) treated eyes were exposed to 3 hours of UVA lamp irradiation. Intraocular pressure was kept at 18-20 mm H2O through an IV system with needles connecting at the posterior side of the eyeball. In order to investigate the mechanical difference between the 1.5 hrs and 3 hrs irradiation groups, Group 2C's (n=3 pairs) corneas went through similar preparations as Group 1 corneas did such that the two treatments with different irradiation times were applied to the pair of eyes from the same animal.
Effective refractive power (Eff. RP) was measured using a handheld topographer (EyeSys Vista, Teas, USA) for Group 2A and 2B eyes. The first point measured at 0.5-1 hour represents the baseline initial refractive power after stabilization at the controlled intraocular pressure before any alterations. The second point measured at 2 hours represents the refractive power after the ribose solution application. The third point at 3.5 hours for Group 2A or 5 hours for Group 2B represents refractive power after ROS-Glycation-CXL or loading for control eyes. […]

The test system of assay [2] is cornea. The assay is described as follows: Optical coherence tomography, corneal apical thickness. Further details: species or system rabbit. The following applies: for sustained thickness change, treated vs control / thickness increase compared to the baseline: final time point; for thickness increase compared to the baseline: all eyes (treated and control). As for the experimental part: as §1, with “animal. The corneas' cross-section and apical thickness were measured using an optical coherence tomographer (OQ LabScope Lumedica, North Carolina, USA) at the same time points described above. The thickness of the corneas was first segmented in ImageJ and calculated using a constant pixel-to-length conversion factor.” for “animal.”

Setting [3] is: 20% ribose + 1069 nm femtosecond laser 450 mW, coverslip deformation (Hypothesis 2A).

As to `O=C[C@H](O)[C@H](O)[C@H](O)CO` [ribose], the “immediate diopter drop (words)” value is reported as “significant Eff.RP diopter drop” with cornea [1] and “diopter drop immediately after treatment” with cornea [1] (listed as Ribose). Also, the “sustained diopter drop (words)” value with cornea [1] is “statistically significant sustained Eff.RP diopter drop; also recorded: stably sustained”; in the assay with cornea [1] (listed as Ribose) it was “persistent at the 8-10 hours time point”. For the same molecule, the “immediate diopter change” value in the assay on cornea [1] (setting [3]) is recorded as “diopter drop immediately after treatment”. The “persistence of diopter change” value in the assay with cornea [1] (setting [3]) is “not persistent and gradually recovered to the baseline”. In addition, the “immediate diopter drop (decrease in effective refractive power)” value was 5 diopters with cornea [1] (Group 2A: 20% ribose 1 hr, 1.5 hr 365 nm UVA lamp under coverslip flattening) and 10 diopters in the assay with cornea [1] (Group 2B: 20% ribose 1 hr, 3 hr 365 nm UVA lamp under coverslip flattening). In addition, in the assay on cornea [1] (Group 2A: 1.5 hr UVA treatment, 10 hr time point), the “sustained diopter drop (decrease in effective refractive power)” value was 2.5 diopters. Moreover, the “refractive power drop, crosslinked vs control pairs, immediate and sustained” value with cornea [1] (Groups 2A and 2B: ribose + 1.5 hr or 3 hr UVA lamp with coverslip loading) is “sustained drop of refractive power; also recorded: Significant immediate and sustained refractive power drop differences”. Moreover, the “sustained thickness change, treated vs control” value was “no significant difference; also recorded: no significant immediate and sustained corneal apical thickness differences” in the assay with cornea [2] (Group 2A, 1.5 hr treatment); “no significant difference; also recorded: no significant immediate and sustained corneal apical thickness differences” in the assay with cornea [2] (Group 2B, 3 hr treatment). Besides, the “immediate thickness change, treated vs loading-only control” value in the assay with cornea [2] (Group 2A, 1.5 hr treatment, immediately after treatment) was “no significant thickness change difference; also recorded: no significant immediate and sustained corneal apical thickness differences”. Further, the “thickness increase compared to the baseline” value in the assay with cornea [2] (Group 2A) was “above 100 μm”; in the assay on cornea [2] (Group 2B), “above 200 μm”. Besides, the “immediate apical thickness increase compared to loading-only control” value with cornea [2] (Group 2B: coverslip flattening + 3 hr ROS-Glycation CxL, immediately after treatment) is 400 nm.
